Measurements from ChEMBL document CHEMBL1201862, “PubChem BioAssay data set” (2004).
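1) Cells in 96-well plates. 2) Compound, 48 h, 5 concentrations. 3) Linear interpolation between surrounding doses. 4) Unreached endpoint = highest concentration. The concentration for 50% growth inhibition is given as GI50.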 Activity calls are given as the source filed them. Rule as the data show it: active = GI50 up to about 1.1 µM and inactive = higher.

Legend:
Test in all cases: inhibition of tumour cell growth, NCI panel, 48 h
M14 = system: M14
SK-OV-3 = system: SK-OV-3
786-0 = system: 786-0
KM12 = system: KM12
LOX IMVI = system: LOX IMVI
ACHN = system: ACHN
TK-10 = system: TK-10
SW-620 = system: SW-620
HCC 2998 = system: HCC 2998
SNB-19 = system: SNB-19
SK-MEL-2 = system: SK-MEL-2
OVCAR-4 = system: OVCAR-4
HOP-92 = system: HOP-92
COLO 205 = system: COLO 205
HOP-62 = system: HOP-62
NCI-H23 = system: NCI-H23
IGROV-1 = system: IGROV-1
CCRF-CEM = system: CCRF-CEM
SK-MEL-28 = system: SK-MEL-28
MDA-MB-435 = system: MDA-MB-435

Measured: GI50

Cc1c(/C=N/NC(=O)c2ccccc2)c(=O)n(-c2ccccc2)n1C
inactive: M14 > 100 µM | SK-OV-3 > 100 µM | 786-0 > 100 µM | KM12 > 100 µM | LOX IMVI > 100 µM | ACHN > 100 µM | TK-10 > 100 µM | SW-620 > 100 µM | HCC 2998 > 100 µM | SNB-19 > 100 µM | SK-MEL-2 > 100 µM | OVCAR-4 > 100 µM | HOP-92 > 100 µM | COLO 205 > 100 µM | HOP-62 > 100 µM | NCI-H23 > 100 µM | IGROV-1 > 100 µM | CCRF-CEM > 100 µM | SK-MEL-28 > 100 µM

CCCCCCc1cc2cc(-c3cn4ccsc4n3)c(=O)oc2cc1O
inactive: SK-OV-3 > 100 µM | 786-0 > 56.9 µM | KM12 > 100 µM | LOX IMVI > 100 µM | ACHN > 100 µM | TK-10 > 95.3 µM | SW-620 > 79.6 µM | HCC 2998 > 100 µM | SNB-19 > 100 µM | SK-MEL-2 > 100 µM | OVCAR-4 > 79.6 µM | HOP-92 > 100 µM | COLO 205 > 100 µM | HOP-62 64.9 µM | NCI-H23 > 82 µM | IGROV-1 > 100 µM | CCRF-CEM > 68.5 µM | SK-MEL-28 > 25.4 µM

N#CC1=C(N)N2C(=O)/C(=C/c3ccccc3)SC2C(c2nc3ccccc3[nH]2)=C1c1ccccc1 (stereo not given)
inactive: M14 2.44 µM | SK-OV-3 1.68 µM | 786-0 2.72 µM | KM12 3.55 µM | LOX IMVI 1.73 µM | ACHN 3.67 µM | TK-10 2.42 µM | SW-620 3.68 µM | HCC 2998 1.57 µM | SNB-19 3.4 µM | SK-MEL-2 2.04 µM | OVCAR-4 2.42 µM | COLO 205 5.98 µM | HOP-62 2.44 µM | NCI-H23 1.85 µM | IGROV-1 2.19 µM | CCRF-CEM 1.96 µM | SK-MEL-28 3.12 µM
active: HOP-92 0.687 µM

c1ccc2[nH]c(-c3nc4ccccc4o3)nc2c1
inactive: M14 > 100 µM | SK-OV-3 > 100 µM | 786-0 > 100 µM | KM12 > 100 µM | LOX IMVI 66.1 µM | ACHN > 100 µM | TK-10 45.1 µM | HCC 2998 > 100 µM | SK-MEL-2 > 100 µM | OVCAR-4 > 100 µM | HOP-92 > 100 µM | COLO 205 49.9 µM | HOP-62 > 100 µM | NCI-H23 > 100 µM | IGROV-1 46.5 µM | CCRF-CEM > 100 µM | SK-MEL-28 > 100 µM

CC(C)=CCC/C(C)=C/CCC(C(=O)COCc1ccccc1)P1(=O)OC(C)(C)CN1C(C)(C)C (stereo not given)
inactive: M14 93.5 µM | SK-OV-3 > 100 µM | 786-0 48.3 µM | KM12 36 µM | LOX IMVI 27.5 µM | ACHN > 100 µM | TK-10 > 100 µM | SW-620 > 100 µM | SNB-19 > 100 µM | SK-MEL-2 35.5 µM | OVCAR-4 23.9 µM | COLO 205 42.2 µM | HOP-62 > 100 µM | NCI-H23 86.5 µM | IGROV-1 91.4 µM | CCRF-CEM 30.6 µM | MDA-MB-435 51.4 µM | SK-MEL-28 62.1 µM

CC(C(=O)c1ccccc1)C1(O)C(=O)Nc2ccccc21 (stereo not given)
inactive: M14 > 100 µM | SK-OV-3 > 100 µM | 786-0 > 100 µM | KM12 > 100 µM | LOX IMVI > 100 µM | ACHN > 100 µM | TK-10 > 100 µM | SW-620 > 100 µM | HCC 2998 > 100 µM | SNB-19 > 100 µM | SK-MEL-2 > 100 µM | OVCAR-4 > 100 µM | HOP-92 > 100 µM | COLO 205 > 100 µM | HOP-62 > 100 µM | NCI-H23 > 100 µM | IGROV-1 > 100 µM | CCRF-CEM > 100 µM | SK-MEL-28 > 100 µM

COC(=O)C1(Cc2ccc3c(c2)CCC3)Cc2ccccc2C1=O (stereo not given)
inactive: M14 9.53 µM | SK-OV-3 15.7 µM | 786-0 24.5 µM | KM12 1.55 µM | LOX IMVI 10.5 µM | ACHN 33.3 µM | TK-10 12.3 µM | SW-620 4.49 µM | HCC 2998 14.6 µM | SNB-19 20.7 µM | SK-MEL-2 13.2 µM | OVCAR-4 26.2 µM | COLO 205 9.66 µM | HOP-62 14.2 µM | NCI-H23 19 µM | IGROV-1 14 µM | CCRF-CEM 6.97 µM | MDA-MB-435 2.97 µM | SK-MEL-28 7.14 µM

CC(C)(C)n1c(=O)n(-c2ccccc2)n(C(C)(C)C)c1=O
inactive: M14 > 100 µM | SK-OV-3 > 100 µM | 786-0 > 100 µM | KM12 > 100 µM | LOX IMVI > 100 µM | ACHN > 100 µM | TK-10 > 100 µM | SW-620 > 100 µM | HCC 2998 > 100 µM | SNB-19 > 100 µM | SK-MEL-2 > 100 µM | OVCAR-4 > 100 µM | HOP-92 > 100 µM | COLO 205 > 100 µM | HOP-62 > 100 µM | NCI-H23 > 100 µM | IGROV-1 > 100 µM | CCRF-CEM > 100 µM | SK-MEL-28 > 100 µM

COC(=O)[C@H](CC(C)C)NC(=O)[C@H](Cc1ccccc1)N1CC2C=CC1C2 (stereo not given in full)
inactive: M14 > 100 µM | SK-OV-3 > 100 µM | 786-0 > 100 µM | KM12 > 100 µM | LOX IMVI > 100 µM | ACHN > 100 µM | TK-10 > 100 µM | SW-620 > 100 µM | HCC 2998 > 100 µM | SNB-19 > 100 µM | SK-MEL-2 > 100 µM | OVCAR-4 > 100 µM | HOP-92 96.6 µM | COLO 205 > 100 µM | HOP-62 > 100 µM | NCI-H23 > 100 µM | IGROV-1 > 100 µM | CCRF-CEM > 100 µM | SK-MEL-28 > 100 µM

CSc1nncc2[nH]cnc12
inactive: M14 > 100 µM | 786-0 > 100 µM | KM12 > 100 µM | ACHN > 100 µM | TK-10 > 100 µM | SW-620 > 100 µM | SNB-19 > 100 µM | SK-MEL-2 > 100 µM | COLO 205 > 100 µM | HOP-62 > 100 µM | NCI-H23 > 100 µM | IGROV-1 > 100 µM | CCRF-CEM > 100 µM | MDA-MB-435 > 100 µM | SK-MEL-28 > 100 µM

CC1(C)CC(=O)C(CC2C(=O)c3ccccc3C2=O)C(=O)C1
inactive: M14 > 100 µM | SK-OV-3 > 100 µM | 786-0 > 100 µM | KM12 > 100 µM | LOX IMVI > 100 µM | ACHN > 100 µM | TK-10 > 100 µM | SW-620 > 100 µM | HCC 2998 > 100 µM | SNB-19 > 100 µM | SK-MEL-2 > 100 µM | OVCAR-4 > 100 µM | HOP-92 > 100 µM | COLO 205 > 100 µM | HOP-62 > 100 µM | NCI-H23 > 100 µM | IGROV-1 > 100 µM | CCRF-CEM > 100 µM | SK-MEL-28 > 100 µM

CC(=O)NC(CCCCN)C(=O)NCc1ccccc1 (stereo not given)
inactive: M14 > 100 µM | SK-OV-3 > 100 µM | 786-0 > 100 µM | KM12 > 100 µM | LOX IMVI > 100 µM | ACHN > 100 µM | TK-10 > 100 µM | SW-620 > 100 µM | HCC 2998 > 100 µM | SNB-19 > 100 µM | SK-MEL-2 > 100 µM | OVCAR-4 > 100 µM | HOP-92 > 100 µM | COLO 205 > 100 µM | HOP-62 > 100 µM | NCI-H23 > 100 µM | IGROV-1 > 100 µM | CCRF-CEM > 100 µM | SK-MEL-28 > 100 µM

COc1ccc2c(c1)C1(C=N2)CCN(C(C)=O)CC1
inactive: M14 > 100 µM | SK-OV-3 > 100 µM | 786-0 > 100 µM | KM12 57.7 µM | LOX IMVI > 100 µM | ACHN > 100 µM | TK-10 > 100 µM | SW-620 > 100 µM | HCC 2998 > 100 µM | SK-MEL-2 > 100 µM | OVCAR-4 > 100 µM | HOP-92 87.9 µM | COLO 205 > 100 µM | HOP-62 > 100 µM | NCI-H23 > 100 µM | IGROV-1 > 100 µM | CCRF-CEM > 100 µM | SK-MEL-28 > 100 µM

Cc1nc(-c2nc(C)c(C(=O)NN(C)C)s2)sc1C(=O)NN(C)C
inactive: M14 > 100 µM | SK-OV-3 > 100 µM | 786-0 30.7 µM | KM12 > 100 µM | LOX IMVI 23.6 µM | ACHN > 100 µM | TK-10 > 100 µM | HCC 2998 > 100 µM | SNB-19 > 100 µM | SK-MEL-2 > 100 µM | OVCAR-4 53 µM | HOP-92 > 100 µM | COLO 205 21.7 µM | HOP-62 > 100 µM | NCI-H23 > 100 µM | IGROV-1 > 100 µM | CCRF-CEM 31.2 µM | SK-MEL-28 > 100 µM

COc1cc(/C=C2\[C@H]3c4c(c(OC)c(C)c(OC)c4OC)C[C@@H](C(=O)N2Cc2ccccc2)N3C(=O)OCC(C)C)c(OC)c(C)c1OC
inactive: M14 > 100 µM | SK-OV-3 > 100 µM | 786-0 > 100 µM | KM12 > 100 µM | LOX IMVI > 100 µM | ACHN > 64.3 µM | TK-10 > 100 µM | SW-620 > 31.6 µM | HCC 2998 > 78.9 µM | SNB-19 > 100 µM | SK-MEL-2 > 100 µM | OVCAR-4 > 100 µM | HOP-92 2.99 µM | COLO 205 > 86.3 µM | HOP-62 > 100 µM | NCI-H23 > 100 µM | IGROV-1 > 77.8 µM | CCRF-CEM 33.6 µM | SK-MEL-28 > 100 µM
